These results are taken from a melting point compilation (Tetko et al.; mined from patent text by program, amines drawn as free bases though some values may be those of a salt).

Molecule `O=C1CCCN1c1cccc(-c2ccc(CC34CCCN3C(=O)N(c3cc(Cl)cc(Cl)c3)C4=O)cc2)c1` (stereo not given) registered a melting point of 86.5 °C.
To `COC(=O)C1CCc2ccc(O)cc2C1` (stereo not given) belongs 83 to 84 °C.
`Cc1cc(C(=O)N2CCCCC2)ccc1[N+](=O)[O-]` displayed a melting point of 71.7 to 72.2 °C.
For `COc1cc2cnnc(N3CCC(CCN(C)C(=O)Nc4cccnc4)CC3)c2cc1OC`, the melting point was in the range of 200 to 204 °C.
Next, `Clc1nc2nc(Cl)sc2s1`: 180 °C.
To `Cc1ccc(S(=O)(=O)NN=CC(=O)Cl)cc1` belongs 100 to 110 °C; to `O=CNNc1ccccc1`, 138 to 143 °C; to `OCc1nccc(N2CCCCC2)n1`, 92 to 93 °C.
To `CN1CCN(c2nc(-c3ccccc3)c(-c3ccnc(S(C)=O)n3)s2)CC1` (stereo not given) belongs 166 to 169 °C; to `CCS(=O)(=O)Nc1ccc(C(O)CNCC2CCc3ccccc3C2=O)cc1` (stereo not given), 120 to 122 °C.
For `CNC(=O)c1ccccc1Sc1ccc(COC(C)=O)cc1[N+](=O)[O-]`, the melting point was 111 to 113 °C.
Next, `COc1cccc2c(=O)c(CSC)cn(C)c12`: 143 to 145 °C.
Next, `Oc1ccc(Nc2nc(Cl)nc(NC3CCCCCC3)n2)cc1Cl`: 91 °C.
To `Nc1ccc2ccc(-c3ccccc3Cl)nc2n1` belongs 193 °C; to `CCCCCCCCCCCCCCCCOc1ccc(O)cc1`, 87 to 88 °C; to `CC(Cn1nccn1)n1nnc2cc3c(=O)n(C(C)Cn4nccn4)nnc3cc2c1=O` (stereo not given), 194 to 195 °C.
With `CCn1c(N)c(C(N)=O)c(=O)c2cnc(Nc3ccc(C(=O)N4CCN(C)CC4)cc3)nc21`, the melting point was determined as 281 °C.
`COC(=O)c1ccccc1C1CC(c2ccccc2)=NO1` (stereo not given) displayed a melting point of 93.5 to 95 °C.
Next, `c1ccc(P(CC[Si](c2ccccc2)(c2ccccc2)c2ccccc2)c2ccccc2)cc1`: 128 to 131 °C; `O=c1c2ccccc2sc2ccc(O)cc12`: 232 to 241 °C.
To `CNc1ncc2c(=O)[nH]c(-c3ccccc3OC)nc2n1` belongs 265 to 267 °C; to `CC1(C)CCC(C(=O)N2CCC[C@H]2C(=O)O)C1SC(=O)c1ccccc1` (stereo not given in full), 187 °C.
To `Cn1cc(OS(C)(=O)=O)c(=O)c2cc(F)ccc21` belongs 188 to 189 °C.
For the molecule `CCOC(=O)c1ncn(Cc2ccccc2)c1OC`, the melting point was in the range of 127 to 128 °C.
For the molecule `Cn1c(=O)c(C(=O)O)c(-c2ccccc2)c2cc(Cl)ccc21`, the melting point fell in the range of 242 to 243 °C.
Next, `CCC1(CC(=O)O)OCC(=O)c2c1[nH]c1cccc(Cl)c21` (stereo not given): 240 to 243 °C.
Next, `CNC(=O)Nc1ccc2c(c1)OC(C)(CCl)O2` (stereo not given): 156 °C; `CCOC(=O)c1cc2n(c1)CNc1ccccc1-2`: 140 to 141 °C.
Consider `CCOC(=O)C(=O)Nc1ccc2c(c1)-n1cc(C(=O)OC)nc1CO2`, for which the melting point was 186 to 188 °C.
`O=C(NCCCS(=O)(=O)c1ccncc1)c1cccs1` returned a melting point of 124 to 125 °C.
Next, `CC(C)c1cccc(C(C)C)c1NC(=O)N(Cc1ccc(N(C)C)cc1)c1ccc(Cl)cc1`: 151 to 152 °C; `CSc1nc(C)ccc1NC(=O)CSc1nc2ccccc2[nH]1`: 192 to 193 °C.
Next, `CCN1CC(=O)N(C)c2cc(Nc3ncc(Cl)c(Nc4ccc(OC)cc4-n4cccn4)n3)c(OC)cc2C1`: 105 to 107 °C; `C(=Cc1ccccc1)Cn1ccnc1`: 37 to 38 °C.
Next, `O=Cc1cccc(-c2nnc(-c3ccc(C(F)(F)F)cc3)o2)c1`: 129 to 130 °C; `CC1(C)Oc2ccc(C#N)cc2C(Oc2cccnn2)C1(C)O` (stereo not given): 93 to 105 °C; `CCCCCCCCCCCCCCOc1ccccc1C(=O)Cc1nnn[nH]1`: 67 to 69 °C.
On to `OCc1cc(-c2ccccc2)no1`, for which the melting point was 48 to 50 °C.
To `CC(C)N1CCNC(=O)c2ccc(Nc3ncc(Cl)c(N[C@@H]4CCCC[C@H]4NS(C)(=O)=O)n3)cc21` belongs 189 to 191 °C; to `CCc1[nH]n(C2CCCC2)c2nc(-c3cccc(-n4ccnc4)c3)nc(=O)c1-2`, 264 to 265 °C; to `Cc1ccccc1C(Oc1cc(OCc2ccc3c(c2)OCO3)ccc1C#N)c1nnn[nH]1` (racemic), 106 to 109 °C.
To `O=[N+]([O-])c1cn2c(n1)O[C@@H](CN1CCN(Cc3ccc(C(F)(F)F)cc3)CC1)C2` belongs 149 to 150 °C; to `COc1ccc2c(c1)Sc1c(cc(OC)c(OC(C)=O)c1Br)N2C`, 189 to 190 °C; to `CC1(COc2ccc(N3CCC(Oc4ccc(OC(F)(F)F)cc4)CC3)cc2)Cn2cc([N+](=O)[O-])nc2O1` (stereo not given), 165 to 166 °C.
To `NCc1ccn(-c2cc3[nH]c(=O)c(=O)[nH]c3cc2[N+](=O)[O-])c1` belongs more than 300 °C; to `C=CCNc1cc(Cl)nnc1NN`, 184 to 186 °C.
`CC1(C)N=C(S)N=C(NC(=O)c2ccccc2)N1` yielded a melting point of 176 to 178 °C.
To `CCCc1c(OCCCSc2cccc(CC(=O)O)c2F)ccc(C(C)=O)c1O` belongs 63 to 65 °C; to `COc1cc(OC)c(-c2cc3ccccc3s2)cc1/C=C/C(=O)c1ccc(Nc2c(N)c(=O)c2=O)cc1`, more than 260 °C; to `C=CC[C@H](C(N)=O)[C@@H](CC(C)C)C(=O)NC1N=C(c2ccccc2)c2cc(OC)ccc2N(C)C1=O` (stereo not given in full), 244 to 255 °C.
Next, `CONC(=O)c1cc2c(Sc3ccc(C)cc3)cncc2s1`: 200 to 203 °C; `CC1C(=O)CSCC1=O`: 131 to 133 °C; `CCSC1CC(=O)CC(SCC)C1(O)c1ccccc1` (stereo not given): 49 to 50 °C.
Next, `CN(CCO)c1ccncc1`: 90 to 91 °C.
Molecule `CCc1cc(CC)c2sc3ccccc3c(=O)c2c1` gave a melting point of 60 °C.
To `CCCCCCS(=O)(=O)c1nn2c(=O)c([N+](=O)[O-])c(OC)nc2s1` belongs 150 to 152 °C; to `CC(NC(=O)c1cc(Cl)ccc1[N+](=O)[O-])C1CC1` (stereo not given), 137 to 141 °C.
The molecule `COc1cc(CCc2c(CO)ccc(OC)c2OC)cc(OC)c1` registered a melting point of 126 to 128 °C.
With `Cn1c2ccccc2c2cc(C(=O)C(C)(C)N3CCOCC3)ccc21`, the melting point was in the range of 164 to 166 °C.
In the case of `NC(=O)C1=C(c2ccccc2)C(c2ccccc2)OC1=O` (stereo not given), the melting point was in the range of 125 to 127 °C.
Next, `COc1cc2ncnc(N3CCC(C(C)=O)CC3)c2cc1OC`: 116 to 117 °C; `N#CCC(c1ccccn1)c1cc(N)cc2c1OCC2` (stereo not given): 143 to 144 °C.
With `COc1cccc([C@H]2O[C@H](CC(=O)Nc3cccc(CCCCC(=O)O)c3)C(=O)N(CC(C)(C)CO)c3ccc(Cl)cc32)c1OC`, the melting point lay within 117 to 119 °C.
Molecule `CN(CC1CCN(CC2COc3ccccc3O2)CC1)c1nc2ccccc2s1` (stereo not given) registered a melting point of 125 °C.
To `Cc1cccc(-c2[nH]c(C(C)C)nc2-c2cccc(-c3ccccc3F)c2)n1` belongs 153 to 155 °C; to `COc1ccc(N2C(=O)[C@H]([C@@H](C)O)[C@H]2S(=O)(=O)c2ccccc2)cc1`, 191 to 195 °C; to `Cc1cc(C)cc(NCc2ccc3nc(NC4CCN(CCO)CC4)n(Cc4nc(C)ccc4O)c3c2)c1`, 144 °C.
With `O=C(O)c1nc2c(=O)[nH]c3cc(C(F)(F)F)ccc3n2c1CBr`, the melting point is more than 250 °C.
Next, `COc1cc(-c2nc3sccn3c2-c2ccnc(N[C@@H]3CCCN(S(=O)(=O)c4ccc(Cl)cc4)C3)n2)ccc1F`: 142 to 143 °C; `Cn1cc(C2=C(c3cn(C)c4cc(C#N)ccc34)C(=O)NC2=O)c2ccc(N)cc21`: 255 to 260 °C; `Cn1ccc2ccc(N3Cc4ccc(-c5cccnc5)cc4C3=O)cc21`: 187 to 188 °C.
Molecule `NS(=O)(=O)c1cc2[nH]c(CO)nc2cc1Cl` registered a melting point of 247 to 250 °C.
Next, `Fc1ccc(Oc2nccc(-c3c(-c4ccc(F)cc4)ncn3C3CCNCC3)n2)cc1`: 186 to 187 °C; `OCc1ccc(-c2cc3c(NCc4cccc(Cl)c4)ncnc3[nH]2)cc1`: 296 to 298 °C.
Next, `Cc1c(C(=O)Nc2ccc(CN3CCC(N4CCOCC4)CC3)c(C#N)c2)cnn1-c1ccc(Cl)cc1`: 167 to 168 °C.
To `CC1(C)[C@@H]2CC[C@@]1(C)C[C@H]2OC(=O)C1CCC(C(=O)O[C@@H]2C[C@]3(C)CC[C@H]2C3(C)C)CC1` (stereo not given in full) belongs 77 °C; to `Nc1ccc(Oc2cc3ccccc3cc2Oc2ccc(N)c(O)c2)cc1O`, 196 to 197 °C.
The molecule `O=c1[nH]c(=Cc2cccs2)c(=O)[nH]c1=Cc1ccc2ccccc2n1` came in with a melting point of 288 to 289 °C.
To `CCN1C(=O)C2=C(c3ccccc3)N(CC)C(=O)C2=C1c1ccccc1` belongs 229 to 230 °C; to `COc1ccc(CN(C)CCCCc2ccc(NC(=O)c3cnc4ccccc4n3)cc2)cc1OC`, 82 to 85 °C.
The molecule `CC1OP(=O)(O)c2ccccc21` (stereo not given) came in with a melting point of 148 to 149 °C.
Next, `CCC(CC)c1ccc(Cl)c2nc3n(c12)CCCCN3c1ccc(N(C)C)cc1C`: 174 to 175 °C; `O=c1nc(-c2ccc(F)cc2)c2c([nH]1)CCCC2`: 248 to 253 °C.
The molecule `CN1C(=O)COc2cc3c(cc21)OCC31C(=O)Nc2ccccc21` (stereo not given) came in with a melting point of more than 250 °C.
Next, `CCOC(=O)C(=CC=C(C#N)c1ccccc1)N(C)C`: 67 °C; `CCCCN1CCc2c(C)nc3ncnn3c21`: 72 to 75 °C; `Cc1nc(N2CCCC(Cc3ccccc3)C2=O)sc1C(=O)NCc1ccccc1` (stereo not given): 162 to 164 °C.
Next, `Nc1nccc(-c2cccc(OCC(O)CN3CCN(c4cccc(Cl)c4)CC3)c2)n1` (stereo not given): 140 to 141 °C.
Next, `O=C(N[C@H]1CC[C@H](CCN2CCC(c3cccc4c3CCO4)CC2)CC1)C1(O)CC1`: 164 °C; `O=C(CSC(=S)N1Cc2[nH]c3ccccc3c2CC1C(=O)O)c1ccccc1` (stereo not given): 116 °C.
